This note sets out measurements from patent publication US11382985B2, “Anti-tumour immune responses to modified self-epitopes” (Scancell Limited, priority 2015, dated 2022).

Square brackets hold non-standard residues; d marks the D form. Ends that are not written are not given here. Cit = NC(=O)NCCC[C@H](N)C(=O)O

Assay [1] relates to splenocytes. Put plainly: Screening of citrullinated Enolase peptide pools, ex vivo IFNγ Elispot, C57BL/6 mice. In kind it is in vivo, C57BL/6 mouse. The settings on record: single immunisation with pool of 4-6 human citrullinated peptides, 20 μg each, CpG/MPLA, day 14, label = peptide used for restimulation. Here is the method:
(§1) C57BL/6 mice (Charles River, UK), HLA-DR4 mice (Taconic, USA), HHDII/DR1 mice (Pasteur institute, France) and the HHD/HLA-DP4 transgenic strain of mouse as described in patent WO2013/017545 A1 (EMMA repository, France) were used, aged between 8 and 12 weeks, and cared for by the staff at Nottingham Trent University. All work was carried out under a Home Office project licence. Peptides were dissolved in PBS to 1 mg/ml and then emulsified (a series of dilutions) with different adjuvants: CpG and MPLA 6 μg/mouse of each (Invivogen, UK), Incomplete Freund's 50 μl/mouse (Sigma, UK), poly I:C 10 μg/mouse (Invivogen, UK), Imiquimod 25 μg/mouse (Invivogen, UK) and GMCSF 10 μg/mouse (Peprotech, UK). Peptides (25 μg/mouse) were injected subcutaneously at the base of the tail. DNA (1 μg/mouse) was coated onto 1.0 μm gold particles (BioRad, Hemel Hempstead, UK) using the manufacturer's instructions and administered intradermally by genegun (BioRad). Homspera (10 nM/mouse) (PeptideSynthetics, UK) was injected intradermally with genegun immunisation. Mice were immunized at either day 0 for peptide immunisation or days, 0 and 7 for genegun immunisation, unless otherwise stated. Spleens were removed for analysis at day 14 for peptide and day 20 for peptide or genegun immunisation unless stated otherwise.
(§2) Elispot assays were performed using murine IFNγ, IL-17 and IL-10 capture and detection reagents according to the manufacturer's instructions (Mabtech, Sweden). In brief, anti-IFNγ, IL-17 and IL-10 antibodies were coated onto wells of 96-well Immobilin-P plate. Synthetic peptides (at a variety of concentrations) and 5×10^5 per well splenocytes were added to the wells of the plate in triplicate. Tumour target cells were added where relevant at 5×10^4/well in triplicate and plates incubated for 40 hrs at 37° C. After incubation, captured IFN and IL-10 were detected by biotinylated anti-IFNγ and IL-10 antibodies and developed with a streptavidin alkaline phosphatase and chromogenic substrate. Spots were analysed and counted using an automated plate reader (Cellular Technologies Ltd).
(§3) Screening was performed to identify potential citrullinated Enolase epitopes in mice. Mice were immunised with pools of 4-6 human citrullinated peptides. […] Each pool was administered as a single immunisation containing 20 μg of each peptide and CpG/MPLA as an adjuvant. After 14 days the mice were culled and the immune responses to each peptide within the immunising pool were assessed by ex vivo Elispot (FIG. 2). In addition, the splenocytes were screened against the murine equivalent sequences. We have previously shown that citrullinated peptides can induce responses in the transgenic DR4 mouse strain. Given that different mouse strains have different MHC repertoires a number of strains were used for screening. Peptide responses were assessed in C57BL/6 mice as well as transgenic strains expressing human DR4 or HHD/DR1 in a C57BL/6 background (see materials and methods).

Assay [2] has as its system splenocytes. Put plainly: Peptide immunisation and ex vivo Elispot, DR4 mice. In kind it is in vivo, HLA-DR4 transgenic mouse. The conditions noted are these: for IFNγ response to the human sequence / IFNγ response to the mouse sequence: single immunisation of the human citrullinated peptide; for IFNγ response to 15mer peptide spanning 241-260: label = 15mer used for restimulation. Here is the method: as §1, §2

Assay [3] deals with splenocytes. The assay can be described thus: Peptide immunisation and ex vivo Elispot, C57Bl/6 mice. The conditions noted are these: C57Bl/6 mice immunised with the human citrullinated peptide. In kind it is in vivo, C57Bl/6 mouse. The method, then:
as §1, §2

Assay [4] relates to splenocytes. The assay can be described thus: Screening of citrullinated Enolase peptide pools, ex vivo IFNγ Elispot, HHD/DR1 mice. The conditions noted are these: single immunisation with pool of 4-6 human citrullinated peptides, 20 μg each, CpG/MPLA, day 14, label = peptide used for restimulation. In kind it is in vivo, transgenic HHD/DR1 mouse. Here is the method:
as §1, §2, §3

In assay [5] the test system is splenocytes. Put plainly: Peptide immunisation and ex vivo Elispot, DR1/HHD mice. In kind it is in vivo, HHD/DR1 transgenic mouse. The settings on record: single immunisation of the human citrullinated peptide. The method, then:
as §1, §2

For assay [6], the system named is splenocytes. Put plainly: Screening of citrullinated Enolase peptide pools, ex vivo IFNγ Elispot, DR4 mice. In kind it is in vivo, transgenic DR4 mouse. The conditions noted are these: single immunisation with pool of 4-6 human citrullinated peptides, 20 μg each, CpG/MPLA, day 14, label = peptide used for restimulation. Here is the method:
C57BL/6 mice (Charles River, UK), HLA-DR4 mice (Taconic, USA), HHDII/DR1 mice (Pasteur institute, France) and the HHD/HLA-DP4 transgenic strain of mouse as described in patent WO2013/017545 A1 (EMMA repository, France) were used, aged between 8 and 12 weeks, and cared for by the staff at Nottingham Trent University. All work was carried out under a Home Office project licence. Peptides were dissolved in PBS to 1 mg/ml and then emulsified (a series of dilutions) with different adjuvants: CpG and MPLA 6 μg/mouse of each (Invivogen, UK), Incomplete Freund's 50 μl/mouse (Sigma, UK), poly I:C 10 μg/mouse (Invivogen, UK), Imiquimod 25 μg/mouse (Invivogen, UK) and GMCSF 10 μg/mouse (Peprotech, UK). […]
Elispot assays were performed using murine IFNγ, IL-17 and IL-10 capture and detection reagents according to the manufacturer's instructions (Mabtech, Sweden). […] After incubation, captured IFN and IL-10 were detected by biotinylated anti-IFNγ and IL-10 antibodies and developed with a streptavidin alkaline phosphatase and chromogenic substrate. Spots were analysed and counted using an automated plate reader (Cellular Technologies Ltd).
Screening was performed to identify potential citrullinated Enolase epitopes in mice. […] After 14 days the mice were culled and the immune responses to each peptide within the immunising pool were assessed by ex vivo Elispot (FIG. 2). […]

Assay [7] has as its system splenocytes. The assay can be described thus: Peptide immunisation and ex vivo Elispot, DP4 mice. In kind it is in vivo, HHD/HLA-DP4 transgenic mouse. The method, then:
as §1, §2

Setting [8] is: DR4 mice immunised with human 241cit.

Consider “EVDLFTSKGLF-CIT-AAVPSGAS [Enolase 21cit]”, for which the “IFNγ response to peptide compared to media” value with splenocytes [1] is “significant response”. Further, in the assay with splenocytes [2] (DR4 mice), the “IFNγ response to the human sequence” value is recorded as “not” and the “IFNγ response to the mouse sequence” value was “low level but significant response”. Further, in the assay with splenocytes [3], the “IFNγ response in presence of CD4 blocking antibody” value is “efficiently blocked”, the “IFNγ response in presence of CD8 blocking antibody” value is on record as “not” and the “IFNγ response to the citrullinated peptide” value is listed as “strong IFNγ responses”.
Take EVDLYTAKGLF-CIT-AAVPSGAS [mouse 21cit]: in the assay on splenocytes [1], the “IFNγ response to peptide compared to media” value was “not”.
In the case of FKSPDDPS-CIT-YISPDQLADLY [human 261cit], the “IFNγ response to peptide compared to media” value in the assay with splenocytes [1] is recorded as “significant response”.
The same measure, in the same setting: under FKSPDDPS-CIT-YITPDQLADLY [mouse 261cit] stands “not”.
With IFDScitGNPTVEVDLF [enolase 11cit], in the assay on splenocytes [3], the “IFN response to the equivalent murine sequence” value was “cross reacted”, the “IFNγ response in presence of CD4 blocking antibody” value was “abrogated the response”, the “IFNγ response in presence of CD8 blocking antibody” value is given as “no effect” and the “IFNγ response to the citrullinated peptide” value was “IFN responses”. Moreover, in the assay on splenocytes [3], the “IFNγ response to the wt peptide” value was “minimal reactivity” and the “IL-10 response to the citrullinated peptide” value is listed as “No IL-10 responses”.
Consider KGVPLY-CIT-HIADLAGNPEVIL [mouse 126cit], for which the “IFNγ response to peptide compared to media” value in the assay on splenocytes [4] was “not”; with splenocytes [1] it was “significant response”.
For “KGVPLY-CIT-HIADLAGNSEVIL [Enolase 126cit]”, the “IFNγ response to peptide compared to media” value is reported as “significant response” with splenocytes [4] and “not” in the assay on splenocytes [1]. The “IFNγ response to the human sequence” value is reported as “low level significant response” with splenocytes [2] (DR4 mice) and “not” in the assay with splenocytes [5].
In the case of MSILKIHA-CIT-EIFDSRGNPTV [Enolase 1-20], in the assay on splenocytes [4], the “IFNγ response to peptide compared to media” value was “did not induced a significant response”.
Same read-out and setting: the entry for MSILRIHA-CIT-EIFDSRGNPTV [mouse 1cit] is “did induce a response”.
The same measure, in the same setting: the entry for VGDDLTVTNPK-CIT-IAKAASEK [mouse 316cit] is “not”.
On to “VGDDLTVTNPK-CIT-IAKAVNEK [Enolase 316cit]”, for which the “IFNγ response to peptide compared to media” value in the assay with splenocytes [4] is on record as “significant response”. Further, in the assay with splenocytes [2] (DR4 mice), the “IFNγ response to the human sequence” value is reported as “moderate response” and the “IFNγ response to the mouse sequence” value is “not”. Besides, in the assay on splenocytes [5], the “IFNγ response to the human sequence” value is “moderate response” and the “IFNγ response to the mouse sequence” value is listed as “not”.
Consider “VIGMDVAASEFY-CIT-SGKYDLD (VIGMDVAASEFY[Cit]SGKYDLD) [mouse 241cit]”, for which the “IFNγ response to peptide compared to media” value in the assay with splenocytes [6] is reported as “significant response”. The “IFNγ response in presence of human MHC class II blocking antibody (L243)” value in the assay on splenocytes [2] (DR4 mice immunised with human 241cit, label = restimulating peptide) is listed as “significantly reduced”. Also, the “time after immunisation at which IFNγ response is detectable” value in the assay with splenocytes [2] (DR4 mice, single dose in CpG/MPLA, sacrificed after 2, 6 or 14 days) is on record as 2 days. In addition, the “IFNγ response compared to the wild type peptides” value with splenocytes [7] (DP4 mice, three doses of human Enolase 241cit, label = restimulating peptide) is on record as “increased IFNγ responses”. Moreover, in the assay on splenocytes [7] (DP4 transgenic mice immunised with the murine peptide, three doses), the “IFNγ responses to citrullinated and wildtype peptide” value was “specific to the citrullinated peptide but not the wildtype”.
As to “aa241-255: 15mer peptide spanning the Enolase 241-260 sequence (VIGMDVAASEFFRSG; UniProt P06733 241-255, looked up, fragment)”, in the assay on splenocytes [2] (setting [8]), the “IFNγ response to 15mer peptide spanning 241-260” value was “stimulating specific responses”.
Turning to “aa246-260: 15mer peptide spanning the Enolase 241-260 sequence (VAASEFFRSGKYDLD; UniProt P06733 246-260, looked up, fragment)”, the “IFNγ response to 15mer peptide spanning 241-260” value in the assay on splenocytes [2] (setting [8]) is listed as “no response”.
